Assay results reported in ChEMBL document CHEMBL3044927, “Novel 4(3H)-quinazolinone analogs: synthesis and anticonvulsant activity” (Med Chem Res, 2013).
Activity calls are given as the source filed them. The calls are words filed in the database; no cut-off is given here.

Columns and labels:
Mus musculus [1] = assay: Anticonvulsant activity in Swiss albino Mus musculus (mouse) assessed as protection against PTZ-induced seizure at 1.5 mmol/kg, ip administered 30 min prior to PTZ-challenge measured up to 30 min relative to control; format: functional
[2] = Toxicity against i.p. dosed Swiss albino Mus musculus (mouse) by Sperman-Karber method; format: organism-based; details: in vivo, ip
Mus musculus [3] = assay: Anticonvulsant activity in Swiss albino Mus musculus (mouse) assessed as protection against maximal electric shock-induced seizure at 1.5 mmol/kg, ip administered 30 min prior to maximal electric shock-challenge measured up to 30 min relative to control; format: functional
Mus musculus [4] = assay: Neurotoxicity against Swiss albino Mus musculus (mouse) at 1.5 mmol/kg, ip measured after 15 to 25 min by chimney test; format: toxicity, organism-based; details: in vivo
Mus musculus [5] = assay: Anticonvulsant activity in Swiss albino Mus musculus (mouse) assessed as protection against PTZ-induced seizure at 0.75 mmol/kg, ip administered 30 min prior to PTZ-challenge measured up to 30 min relative to control; format: functional
Mus musculus [6] = assay: Neurotoxicity against Swiss albino Mus musculus (mouse) at 0.37 mmol/kg, ip measured after 15 to 25 min by chimney test; format: toxicity, organism-based; details: in vivo
Mus musculus [7] = assay: Anticonvulsant activity in Swiss albino Mus musculus (mouse) assessed as protection against maximal electric shock-induced seizure at 0.18 mmol/kg, i.p. administered 30 min prior to maximal electric shock-challenge measured up to 30 min relative to control; format: functional
Mus musculus [8] = assay: Anticonvulsant activity in Swiss albino Mus musculus (mouse) assessed as protection against maximal electric shock-induced seizure at 0.37 mmol/kg, i.p. administered 30 min prior to maximal electric shock-challenge measured up to 30 min relative to control; format: functional
[9] = Neurotoxicity against ip dosed Swiss albino Mus musculus (mouse) measured after 15 to 25 min by chimney test; format: toxicity, organism-based; details: in vivo
Mus musculus [10] = assay: Neurotoxicity against Swiss albino Mus musculus (mouse) at 0.75 mmol/kg, ip measured after 15 to 25 min by chimney test; format: toxicity, organism-based; details: in vivo
Mus musculus [11] = organism: Mus musculus; assay: Protective index, ratio of TD50 for to ED50 in Swiss albino Mus musculus (mouse)
Mus musculus [12] = assay: Anticonvulsant activity in Swiss albino Mus musculus (mouse) assessed as protection against maximal electric shock-induced seizure at 0.75 mmol/kg, i.p. administered 30 min prior to maximal electric shock-challenge measured up to 30 min relative to control; format: functional
Mus musculus [13] = assay: Anticonvulsant activity in Swiss albino Mus musculus (mouse) assessed as protection against bicuculline-induced seizure at 0.75 mmol/kg, i.p. administered 30 min prior to bicuculline-challenge measured up to 30 min relative to control; format: functional
Mus musculus [14] = assay: Anticonvulsant activity in Swiss albino Mus musculus (mouse) assessed as protection against PTZ-induced seizure at 0.18 mmol/kg, ip administered 30 min prior to PTZ-challenge measured up to 30 min relative to control; format: functional
[15] = Therapeutic index, ratio of LD50 to ED50 in Swiss albino Mus musculus (mouse); format: organism-based; details: in vivo, read-out: Ratio LD50/ED50
Mus musculus [16] = assay: Anticonvulsant activity in ip dosed Swiss albino Mus musculus (mouse) assessed as protection against PTZ-induced seizure administered 30 min prior to PTZ-challenge measured up to 30 min; format: functional
Mus musculus [17] = assay: Anticonvulsant activity in Swiss albino Mus musculus (mouse) assessed as protection against picrotoxin-induced seizure at 0.37 mmol/kg, i.p. administered 30 min prior to picrotoxin-challenge measured up to 30 min relative to control; format: functional
Mus musculus [18] = assay: Anticonvulsant activity in Swiss albino Mus musculus (mouse) assessed as protection against bicuculline-induced seizure at 1.5 mmol/kg, ip administered 30 min prior to bicuculline-challenge measured up to 30 min relative to control; format: functional
Mus musculus [19] = assay: Anticonvulsant activity in Swiss albino Mus musculus (mouse) assessed as protection against bicuculline-induced seizure at 0.37 mmol/kg, i.p. administered 30 min prior to bicuculline-challenge measured up to 30 min relative to control; format: functional
Mus musculus [20] = assay: Anticonvulsant activity in Swiss albino Mus musculus (mouse) assessed as protection against PTZ-induced seizure at 0.37 mmol/kg, ip administered 30 min prior to PTZ-challenge measured up to 30 min relative to control; format: functional
Mus musculus [21] = assay: Anticonvulsant activity in Swiss albino Mus musculus (mouse) assessed as protection against bicuculline-induced seizure at 0.18 mmol/kg, i.p. administered 30 min prior to bicuculline-challenge measured up to 30 min relative to control; format: functional
Mus musculus [22] = assay: Neurotoxicity against Swiss albino Mus musculus (mouse) at 0.18 mmol/kg, ip measured after 15 to 25 min by chimney test; format: toxicity, organism-based; details: in vivo
Mus musculus [23] = assay: Anticonvulsant activity in Swiss albino Mus musculus (mouse) assessed as protection against picrotoxin-induced seizure at 1.5 mmol/kg, ip administered 30 min prior to picrotoxin-challenge measured up to 30 min relative to control; format: functional
Mus musculus [24] = assay: Anticonvulsant activity in Swiss albino Mus musculus (mouse) assessed as protection against maximal electric shock-induced seizure at 1.38 mmol/kg, ip administered 30 min prior to maximal electric shock-challenge measured up to 30 min relative to control; format: functional
Mus musculus [25] = assay: Anticonvulsant activity in Swiss albino Mus musculus (mouse) assessed as protection against PTZ-induced seizure at 1.38 mmol/kg, ip administered 30 min prior to PTZ-challenge measured up to 30 min relative to control; format: functional
Mus musculus [26] = assay: Anticonvulsant activity in Swiss albino Mus musculus (mouse) assessed as protection against bicuculline-induced seizure at 1.38 mmol/kg, ip administered 30 min prior to bicuculline-challenge measured up to 30 min relative to control; format: functional
Mus musculus [27] = assay: Anticonvulsant activity in Swiss albino Mus musculus (mouse) assessed as protection against picrotoxin-induced seizure at 1.38 mmol/kg, ip administered 30 min prior to picrotoxin-challenge measured up to 30 min relative to control; format: functional
[28] = Toxicity against Swiss albino Mus musculus (mouse) assessed as mortality at 1.5 mmol/kg, ip; format: organism-based; details: in vivo, read-out: Activity

O=c1c2cc([N+](=O)[O-])ccc2nc(S)n1-c1ccccc1
Activity (Mus musculus [1]): 30%

Cc1ccc2nc(SCC(=O)NN3C(=O)c4c(Cl)c(Cl)c(Cl)c(Cl)c4C3=O)n(-c3ccccc3)c(=O)c2c1
LD50 [2]: 1290 mg/kg | Activity (Mus musculus [3]): 70% | Activity (Mus musculus [4]): 100% | Activity (Mus musculus [1]): 70% | Activity (Mus musculus [5]): 50% | Activity (Mus musculus [6]): 0% | Activity (Mus musculus [7]): 0% | Activity (Mus musculus [8]): 0% | TD50 [9]: 562 mg/kg | Activity (Mus musculus [10]): 30% | Ratio TD50/ED50 (Mus musculus [11]): 1.22 | Activity (Mus musculus [12]): 10% | Activity (Mus musculus [13]): 70% | Activity (Mus musculus [14]): 0% | selectivity ratio [15]: 2.82 | ED50 (Mus musculus [16]): 457 mg/kg | Activity (Mus musculus [17]): 20% | Activity (Mus musculus [18]): 100% | Activity (Mus musculus [19]): 10% | Activity (Mus musculus [20]): 30% | Activity (Mus musculus [21]): 0% | Activity (Mus musculus [22]): 0%

Cc1ccc2nc(S)n(Cc3ccccc3)c(=O)c2c1
Activity (Mus musculus [1]): inactive

Cc1ccc2nc(SCC(=O)NN3C(=O)c4cccc5cccc(c45)C3=O)n(Cc3ccccc3)c(=O)c2c1
Activity (Mus musculus [3]): 30% | Activity (Mus musculus [1]): 70% | Activity (Mus musculus [18]): 100% | Activity (Mus musculus [23]): 80%

NNc1nc2ccc([N+](=O)[O-])cc2c(=O)n1-c1ccccc1
Activity (Mus musculus [1]): 30%

O=C(Nc1ccc(I)cc1C(=O)O)c1cccs1
Activity (Mus musculus [1]): inactive

O=C(COc1nc(-c2cccs2)nc2ccc(I)cc12)NN1C(=O)c2c(Br)c(Br)c(Br)c(Br)c2C1=O
Activity (Mus musculus [1]): 30%

CCCC(CCC)C(=O)[O-].[Na+] [VALPROATE SODIUM]
Activity (Mus musculus [24]): 100% | Activity (Mus musculus [25]): 100% | Activity (Mus musculus [26]): 100% | Activity (Mus musculus [27]): 100%

CCOC(=O)COc1nc(-c2cccs2)nc2ccc(I)cc12
Activity (Mus musculus [1]): 30%

Cc1ccc2nc(SCC(=O)NN3C(=O)c4c(Br)c(Br)c(Br)c(Br)c4C3=O)n(Cc3ccccc3)c(=O)c2c1
Activity (Mus musculus [1]): inactive

O=C(COc1nc(-c2cccs2)nc2ccc(I)cc12)NN1C(=O)c2cccc3cccc(c23)C1=O
Activity (Mus musculus [1]): inactive

Cc1ccc2nc(S)n(-c3ccccc3)c(=O)c2c1
Activity (Mus musculus [3]): 0% | Activity (Mus musculus [1]): 70% | Activity (Mus musculus [18]): 100% | Activity (Mus musculus [23]): 80%

NNC(=O)COc1nc(-c2cccs2)nc2ccc(I)cc12
Activity (Mus musculus [1]): 30%

O=C1c2cccc3cccc(c23)C(=O)N1n1c(-c2cccs2)nc2ccc(I)cc2c1=O
Activity (Mus musculus [1]): inactive

CCOC(=O)CSc1nc2ccc(C)cc2c(=O)n1Cc1ccccc1
Activity (Mus musculus [1]): inactive

Cc1ccc2nc(SCC(=O)NN3C(=O)c4c(Cl)c(Cl)c(Cl)c(Cl)c4C3=O)n(Cc3ccccc3)c(=O)c2c1
Activity (Mus musculus [1]): inactive

O=C(COc1nc(-c2cccs2)nc2ccc(I)cc12)NN1C(=O)c2ccccc2C1=O
Activity (Mus musculus [1]): 30%

O=C1c2c(Br)c(Br)c(Br)c(Br)c2C(=O)N1n1c(-c2cccs2)nc2ccc(I)cc2c1=O
Activity (Mus musculus [1]): 30%

O=c1oc(-c2cccs2)nc2ccc(I)cc12
Activity (Mus musculus [1]): inactive

Cc1ccc2nc(SCC(=O)NN)n(Cc3ccccc3)c(=O)c2c1
mortality [28]: 100% | Activity (Mus musculus [1]): inactive

O=c1[nH]c(-c2cccs2)nc2ccc(I)cc12
Activity (Mus musculus [1]): inactive

NNc1nc2ccc([N+](=O)[O-])cc2c(=O)n1Cc1ccccc1
Activity (Mus musculus [1]): inactive

Cc1ccc2nc(SCC(=O)NN3C(=O)c4cccc5cccc(c45)C3=O)n(-c3ccccc3)c(=O)c2c1
Activity (Mus musculus [1]): inactive

O=C1c2cccc3cccc(c23)C(=O)N1Nc1nc2ccc([N+](=O)[O-])cc2c(=O)n1Cc1ccccc1
Activity (Mus musculus [1]): 30%

O=c1c2cc([N+](=O)[O-])ccc2nc(S)n1Cc1ccccc1
Activity (Mus musculus [1]): inactive

CCOC(=O)CSc1nc2ccc([N+](=O)[O-])cc2c(=O)n1-c1ccccc1
Activity (Mus musculus [1]): inactive

Cn1c(-c2cccs2)nc2ccc(I)cc2c1=O
Activity (Mus musculus [3]): 0% | Activity (Mus musculus [1]): 100% | Activity (Mus musculus [18]): 100%

O=C1c2c(Cl)c(Cl)c(Cl)c(Cl)c2C(=O)N1n1c(-c2cccs2)nc2ccc(I)cc2c1=O
Activity (Mus musculus [1]): inactive

Cc1ccc2nc(SCC(=O)NN3C(=O)CCC3=O)n(Cc3ccccc3)c(=O)c2c1
Activity (Mus musculus [1]): 30%

O=C(Nn1c(-c2cccs2)nc2ccc(I)cc2c1=O)c1ccccc1
Activity (Mus musculus [3]): 0% | Activity (Mus musculus [1]): 100% | Activity (Mus musculus [18]): 100% | Activity (Mus musculus [23]): 80%

CCOC(=O)CSc1nc2ccc(C)cc2c(=O)n1-c1ccccc1
Activity (Mus musculus [1]): inactive

CCOC(=O)CSc1nc2ccc([N+](=O)[O-])cc2c(=O)n1Cc1ccccc1
Activity (Mus musculus [1]): inactive

Cc1ccc2nc(SCC(=O)NN3C(=O)c4ccccc4C3=O)n(-c3ccccc3)c(=O)c2c1
Activity (Mus musculus [1]): inactive

Cc1ccc2nc(SCC(=O)NN)n(-c3ccccc3)c(=O)c2c1
mortality [28]: 100% | Activity (Mus musculus [1]): inactive

O=C(COc1nc(-c2cccs2)nc2ccc(I)cc12)NN1C(=O)c2c(Cl)c(Cl)c(Cl)c(Cl)c2C1=O
Activity (Mus musculus [1]): 30%

Cc1ccc2nc(SCC(=O)NN3C(=O)c4ccccc4C3=O)n(Cc3ccccc3)c(=O)c2c1
Activity (Mus musculus [1]): inactive

Cc1ccc2nc(SCC(=O)NN3C(=O)c4c(Br)c(Br)c(Br)c(Br)c4C3=O)n(-c3ccccc3)c(=O)c2c1
Activity (Mus musculus [1]): inactive
